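Five compound concentrations were applied to cells in 96-well plates for 48 hours; endpoints were derived by simple linear interpolation of the resulting dose-response curve. The concentration for 50% growth inhibition is given as GI50.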 The source made the active and inactive calls. No stated cut-off is given here; in the data, active = GI50 up to about 1.1 µM and inactive = higher.
Legend:
Assay in all cases: growth of human tumour cells (NCI), 48 h
786-0 = test system: 786-0
A549 = test system: A549
COLO 205 = test system: COLO 205
HL-60 = test system: HL-60
HOP-62 = test system: HOP-62
HT-29 = test system: HT-29
KM12 = test system: KM12
M14 = test system: M14
MOLT-4 = test system: MOLT-4
NCI-H226 = test system: NCI-H226
NCI-H522 = test system: NCI-H522
OVCAR-3 = test system: OVCAR-3
OVCAR-4 = test system: OVCAR-4
OVCAR-5 = test system: OVCAR-5
RXF 393 = test system: RXF 393
SK-MEL-28 = test system: SK-MEL-28
SW-620 = test system: SW-620
TK-10 = test system: TK-10
UACC-257 = test system: UACC-257

Measured: GI50

O=C(c1ccccc1)c1nnc(C(=O)c2ccccc2)nn1
inactive: 786-0 179 µM | A549 > 344 µM | COLO 205 > 344 µM | HL-60 > 344 µM | HOP-62 > 344 µM | HT-29 > 344 µM | KM12 > 344 µM | M14 272 µM | MOLT-4 > 344 µM | NCI-H226 > 344 µM | NCI-H522 134 µM | OVCAR-3 > 344 µM | OVCAR-4 > 344 µM | OVCAR-5 > 344 µM | RXF 393 151 µM | SK-MEL-28 > 344 µM | SW-620 > 344 µM | TK-10 > 344 µM | UACC-257 > 344 µM

CCOc1cccc2cccnc12
inactive: 786-0 > 100 µM | A549 > 100 µM | COLO 205 > 100 µM | HL-60 > 100 µM | HOP-62 > 100 µM | HT-29 > 100 µM | KM12 > 100 µM | M14 > 100 µM | MOLT-4 > 100 µM | NCI-H226 > 100 µM | NCI-H522 > 100 µM | OVCAR-3 > 100 µM | OVCAR-4 > 100 µM | OVCAR-5 > 100 µM | RXF 393 > 100 µM | SK-MEL-28 > 100 µM | SW-620 > 100 µM | TK-10 > 100 µM | UACC-257 > 100 µM

CN1C(c2ccccc2)CC(=O)C(N)C1c1ccccc1 (centres undefined)
inactive: 786-0 31.3 µM | A549 38.7 µM | COLO 205 18.5 µM | HL-60 20.6 µM | HOP-62 > 92.5 µM | HT-29 23.9 µM | KM12 23.9 µM | M14 26.6 µM | MOLT-4 20.1 µM | NCI-H226 39.4 µM | NCI-H522 17 µM | OVCAR-3 33.7 µM | OVCAR-4 49.4 µM | OVCAR-5 35.4 µM | RXF 393 24.4 µM | SK-MEL-28 18.6 µM | SW-620 19.9 µM | TK-10 43.7 µM | UACC-257 30.3 µM

CCCCCCCCC(=O)CCCCCCCCC(=O)O
inactive: 786-0 22.9 µM | A549 19.7 µM | COLO 205 21.8 µM | HL-60 4.09 µM | HOP-62 26.9 µM | HT-29 23 µM | KM12 17.3 µM | M14 32.1 µM | MOLT-4 14.8 µM | NCI-H226 27.2 µM | NCI-H522 25.5 µM | OVCAR-3 18.8 µM | OVCAR-4 50.2 µM | OVCAR-5 24.8 µM | RXF 393 27.4 µM | SK-MEL-28 36.1 µM | SW-620 39.7 µM | TK-10 33.3 µM | UACC-257 > 100 µM

O=C1C2C3C=CC(C2C(=O)N1COP(=O)(O)O)C1C2C(=O)N(COP(=O)(O)O)C(=O)C2C31 (centres undefined)
inactive: 786-0 > 71.6 µM | A549 > 69.7 µM | COLO 205 > 47.5 µM | HL-60 15.5 µM | HOP-62 > 100 µM | HT-29 > 100 µM | KM12 > 100 µM | M14 > 100 µM | MOLT-4 > 100 µM | NCI-H226 > 100 µM | NCI-H522 > 100 µM | OVCAR-3 > 100 µM | OVCAR-4 > 100 µM | OVCAR-5 > 100 µM | RXF 393 > 100 µM | SK-MEL-28 > 100 µM | SW-620 > 45.7 µM | TK-10 > 100 µM | UACC-257 > 100 µM

COc1ccc(C2Oc3cc(OC)c(O)c(C)c3[C@H]2C)cc1 (some centres undefined)
inactive: 786-0 > 100 µM | A549 > 100 µM | COLO 205 > 100 µM | HL-60 18.2 µM | HOP-62 > 100 µM | HT-29 > 100 µM | KM12 > 100 µM | M14 > 100 µM | MOLT-4 33.3 µM | NCI-H226 26.9 µM | NCI-H522 35.2 µM | OVCAR-3 > 100 µM | OVCAR-4 80.4 µM | OVCAR-5 > 100 µM | RXF 393 23 µM | SK-MEL-28 > 100 µM | SW-620 66.4 µM | TK-10 > 100 µM | UACC-257 > 100 µM
